From US7511026B2, “Therapeutic agent for nerve damage” (Seikagaku Corporation, priority 2003, dated 2009)

Experiments:
Type in all cases: in vivo, Wister rats
spinal cord injury model = assay: Evaluation on performance status (walking) after spinal cord injury; settings: 7 days after the administration; PBS-administered group showed difficulty in walking
Experimental: (§1) Wister rats (SPF, male) were used as animals, and each body was shaved from the neck to the hip using an electric hair clipper under pentobarbital (50 mg/kg weight) anesthesia and cleaned with 70% ethanol and Isodine (manufactured by Meiji Seika Kaisha, Ltd.). The dorsal skin was incised to expose thoracic vertebra from T5 to T10, and hemilaminectomy of the sixth thoracic vertebra (T6 thoracic vertebra) was performed to make a small incision in the dura mater, followed by regional anesthesia with xylocaine (manufactured by Astra Zeneca). Subsequently, two models were prepared as follows: a spatula (the tip of which had been processed into 0.3 mm) was inserted to the T6 position from the dorsal until the tip reached the abdominal centrum and maintained for 10 minutes to injure the spinal cord (slightly injured model), while a tweezer (the tip of which had been processed into 0.3 mm) was inserted until the tip reached the abdominal centrum, and the portion was pinched from both sides for 10 seconds to injure the spinal cord (seriously injured model). A respirator was used only when spinal cord evoked potentials were measured. The respirator was inserted into the windpipe under 1.0 to 2.0% halothane anesthesia and stabilized with a muscle relaxant. […]

[1] = system: spinal cord injury, slightly injured model; assay: Spinal cord evoked potential (SCEP), slightly injured model; settings: HA4 60 μg/animal/day, 7 days after injury
Experimental: (§2) Wister rats (SPF, male) were used as animals, and each body was shaved from the neck to the hip using an electric hair clipper under pentobarbital (50 mg/kg weight) anesthesia and cleaned with 70% ethanol and Isodine (manufactured by Meiji Seika Kaisha, Ltd.). The dorsal skin was incised to expose thoracic vertebra from T5 to T10, and hemilaminectomy of the sixth thoracic vertebra (T6 thoracic vertebra) was performed to make a small incision in the dura mater, followed by regional anesthesia with xylocaine (manufactured by Astra Zeneca). […] A respirator was used only when spinal cord evoked potentials were measured. […]
(§3) 7 days after the spinal cord injury, the spinal cord evoked potentials were determined. […] Then, the spinal cord evoked potential (SCEP) was measured, and the “mean±SD” was calculated. The resultant potentials were evaluated using the amplitude of the first potential as an indicator. […]

[2] = system: spinal cord injury, seriously injured model (I); assay: Spinal cord evoked potential (SCEP), seriously injured model (I); settings: for SCEP amplitude (first potential): 7 days after injury, vs PBS-administered group
Experimental: Wister rats (SPF, male) were used as animals, and each body was shaved from the neck to the hip using an electric hair clipper under pentobarbital (50 mg/kg weight) anesthesia and cleaned with 70% ethanol and Isodine (manufactured by Meiji Seika Kaisha, Ltd.). The dorsal skin was incised to expose thoracic vertebra from T5 to T10, and hemilaminectomy of the sixth thoracic vertebra (T6 thoracic vertebra) was performed to make a small incision in the dura mater, followed by regional anesthesia with xylocaine (manufactured by Astra Zeneca). Subsequently, two models were prepared as follows: a spatula (the tip of which had been processed into 0.3 mm) was inserted to the T6 position from the dorsal until the tip reached the abdominal centrum and maintained for 10 minutes to injure the spinal cord (slightly injured model), while a tweezer (the tip of which had been processed into 0.3 mm) was inserted until the tip reached the abdominal centrum, and the portion was pinched from both sides for 10 seconds to injure the spinal cord (seriously injured model). A respirator was used only when spinal cord evoked potentials were measured. The respirator was inserted into the windpipe under 1.0 to 2.0% halothane anesthesia and stabilized with a muscle relaxant.
After the injury, HA4 (6 μl) was immediately administered using a microsyringe (25 μl; manufactured by Ito Seisakusyo Co., Ltd.) into the dura mater. Thereafter, the tip (OD: 0.3 mm) of a tube that was filled with HA4 and connected with an osmotic pump (model 1002, manufactured by Alzet) was placed under the dura mater of the rostral in the injured portion, and HA4 was continuously administered for 7 days. […]
as §3

[3] = system: spinal cord injury, seriously injured model (II); assay: Spinal cord evoked potential (SCEP), seriously injured model (II); settings: HA4 6.0 μg/animal/day, vs physiological saline-administered group, p<0.05
Experimental: as §2, §3

[4] = system: spinal cord injury, slightly injured model; assay: Histopathologic evaluation of injured spinal cord (Kluver-Barrera staining), slightly injured model
Experimental: as §1, with “relaxant. After the injury, HA4 (6 μl) was immediately administered using a microsyringe (25 μl; manufactured by Ito Seisakusyo Co., Ltd.) into the dura mater. Thereafter, the tip (OD: 0.3 mm) of a tube that was filled with HA4 and connected with an osmotic pump (model 1002, manufactured by Alzet) was placed under the dura mater of the rostral in the injured portion, and HA4 was continuously administered for 7 days. Meanwhile, 5 minutes, 2 hours, 4 hours, and 6 hours after the injury, 30 mg/kg of methylprednisolone sodium succinate (MPSS, manufactured by Pharmacia) was administered into the tail vein as a positive control. For separating the injured portion from the surrounding tissues, a gelatin sponge (Gelform; manufactured by Pharmacia) was placed, and the rat was brought back to a feeding gauge after the wound had been sewn.” for “relaxant.”

[5] = system: spinal cord injury, severely injured model (II); assay: Balance beam and metal gauze crossing tests, severely injured model (II); settings: 7 days after spinal cord injury, mean of four crossings, P<0.0001 vs physiological saline-administered group
Experimental: Wister rats (SPF, male) were used as animals, and each body was shaved from the neck to the hip using an electric hair clipper under pentobarbital (50 mg/kg weight) anesthesia and cleaned with 70% ethanol and Isodine (manufactured by Meiji Seika Kaisha, Ltd.). The dorsal skin was incised to expose thoracic vertebra from T5 to T10, and hemilaminectomy of the sixth thoracic vertebra (T6 thoracic vertebra) was performed to make a small incision in the dura mater, followed by regional anesthesia with xylocaine (manufactured by Astra Zeneca). Subsequently, two models were prepared as follows: a spatula (the tip of which had been processed into 0.3 mm) was inserted to the T6 position from the dorsal until the tip reached the abdominal centrum and maintained for 10 minutes to injure the spinal cord (slightly injured model), while a tweezer (the tip of which had been processed into 0.3 mm) was inserted until the tip reached the abdominal centrum, and the portion was pinched from both sides for 10 seconds to injure the spinal cord (seriously injured model). A respirator was used only when spinal cord evoked potentials were measured. […] Then, the numbers of slips in the hind limb were recorded, and evaluated by the mean value (FIG. 12). As for the sham surgery group prepared by making a small incision in the dura mater (Sham), the number of slips in the hind limb was also determined.

[6] = system: spinal cord injury, severely injured model (II); assay: Hind limb motor function test (BBB scale), severely injured model (II); settings: HA4 6 μg/day, over 1 to 7 days after the spinal cord injury, P<0.0001 vs physiological saline-administered group
Experimental: Wister rats (SPF, male) were used as animals, and each body was shaved from the neck to the hip using an electric hair clipper under pentobarbital (50 mg/kg weight) anesthesia and cleaned with 70% ethanol and Isodine (manufactured by Meiji Seika Kaisha, Ltd.). The dorsal skin was incised to expose thoracic vertebra from T5 to T10, and hemilaminectomy of the sixth thoracic vertebra (T6 thoracic vertebra) was performed to make a small incision in the dura mater, followed by regional anesthesia with xylocaine (manufactured by Astra Zeneca). Subsequently, two models were prepared as follows: a spatula (the tip of which had been processed into 0.3 mm) was inserted to the T6 position from the dorsal until the tip reached the abdominal centrum and maintained for 10 minutes to injure the spinal cord (slightly injured model), while a tweezer (the tip of which had been processed into 0.3 mm) was inserted until the tip reached the abdominal centrum, and the portion was pinched from both sides for 10 seconds to injure the spinal cord (seriously injured model). A respirator was used only when spinal cord evoked potentials were measured. […] According to the method described by Basso et al., two test examiners individually evaluated blindly using the Basso-Beeattie-Bresnahan (BBB) scale, and the mean values were defined as the final score (FIG. 13).

CC(=O)N[C@H]1[C@H](O[C@H]2[C@H](O)[C@@H](O)[C@H](O[C@H]3[C@H](O)[C@@H](CO)OC(O)[C@@H]3NC(C)=O)O[C@@H]2C(=O)O)O[C@H](CO)[C@@H](O)[C@@H]1O[C@@H]1O[C@H](C(=O)O)[C@@H](O)[C@H](O)[C@H]1O (stereo partly shown) [HA4, GlcA-GlcNAc-GlcA-GlcNAc]
performance status (walking) (spinal cord injury model): walking approximately similar to that of the normal rat was observed | SCEP amplitude level relative to normal (no injury-no treatment group) [1]: the same as the normal level | SCEP amplitude (first potential) ([1]; intradural, continuous 7 days, vs PBS-administered group, p<0.05): decrease of SCEP amplitude was significantly attenuated or the SCEP amplitude was recovered | SCEP amplitude (first potential) ([2]; HA4 0.6 μg/animal/day, p<0.05): decrease of the SCEP amplitude was significantly attenuated or the SCEP amplitude was recovered | SCEP effect compared with MPSS ([2]; HA4 6 μg/animal/day vs MPSS 30 mg/kg x 4 times, tail vein): stronger effect than that of MPSS | SCEP amplitude (first potential) ([2]; HA4 6 μg/animal/day, p<0.001, same level as the normal level): decrease of the SCEP amplitude was significantly attenuated or the SCEP amplitude was recovered | SCEP amplitude [3]: significantly recovered | number of axons crossing from white matter to gray matter ([4]; 5 mm range in the rostral/caudal direction in the injured site, vs physiological saline-administered group): significantly larger | tissue injury, edema and myelin loss in white matter ([4]; Kluver-Barrera staining, PBS group showed edema and myelin loss 1 cm or more from the injured site): the tissue injury was present only near the injured site, and edema and myelin loss were rarely observed in white matter | injured area (damaged area) ([4]; coronal plane including the central canal, vs PBS-administered group): significantly smaller | number of slips in the hind limb, balance beam crossing [5]: significantly low | number of slips in the hind limb, metal gauze crossing [5]: significantly low | motor function in the hind limb (BBB scale) [6]: significantly recovered
